Tests used:
[1] = resorption after peroral administration of rapid release carvedilol formulations; assay type: in vivo; details: e.g. the commercial formulation
Description: In the case of the peroral administration of rapid release carvedilol formulations, e.g. the commercial formulation, resorption quotas of up to 80% are achieved, with a considerable part of the resorbed carvedilol being very rapidly metabolized.

[2] = pH 1
[3] = dissolution in molten polyethylene glycol 6,000; assay type: physicochemical; details: polyethylene glycol 6,000 melted at about 70° C.; carvedilol form I, II or IV dissolved
Protocol: Thus, carvedilol form I, II or IV can be dissolved in polyethylene glycol 6,000 which is melted at about 70° C. […] Further, the compositions in accordance with the invention can contain highly dispersed silicon dioxide as an anti-caking agent.

[4] = investigations into the gastrointestinal resorption of carvedilol; assay type: in vivo; details: compared with resorption in the stomach
[5] = active substance resorption / bioavailability of compositions containing carvedilol form IV; assay type: in vivo; details: compositions with selected adjuvants, compared with formulations which contain carvedilol forms I or II

resorption quota [1]	solubility in aqueous media [2]	solubility in the strongly acidic region [2]	concentration of carvedilol obtained in polyethylene glycol 6,000 [3]	bioavailability [5]	SMILES	resorption in the ileum and colon [4]
up to 80%	1 mg and 100	very low solubility	up to 500 mg/ml	–	COc1ccccc1OCCNCC(O)COc1cccc2[nH]c3ccccc3c12 (racemic) [carvedilol, (±)1-(4-carbazolyloxy)-3-[2-(2-methoxyphenoxy)ethylamino]-2-propanole]	only a fraction of the resorption in the stomach
–	–	–	–	improved bioavailability	COc1ccccc1OCCNCC(O)COc1cccc2[nH]c3ccccc3c12 (racemic) [carvedilol form IV, (±)1-(4-carbazolyloxy)-3-[2-(2-methoxyphenoxy)ethylamino]-2-propanole]	–

Source: patent publication US20060148878A1, “Pseudopolymorphic forms of carvedilol” (priority 2001, published 2006)
